Assay results as given in patent US10925858B2, “S-nitrosoglutathione (GSNO) and GSNO reductase inhibitors for use in therapy” (MUSC FOUNDATION FOR RESEARCH DEVELOPMENT, priority 2017, dated 2021).

How the values were obtained:
myelin = test: Spinal cord demyelination (MBP staining and Western) in EAE mice; assay type: in vivo, C57BL/6J mice; conditions: GSNO 1 mg/kg/day or FeTPPS 30 mg/kg/day i.p.
Experimental: Western immunoblot analysis was performed by standard method using 50 μg of cell lysates. Following the SDS-PAGE electrophoresis, proteins were transferred from the gel onto the Polyvinylidene fluoride membrane (GE Healthcare Life Sciences, Marlborough, Mass.). […]
EAE was induced as described previously (Nath et al., 2009). […] The group size was determined by power analysis based on our previous data (Nadi et al., 2009). […] Clinical signs of EAE were scored in animal facility in a blinded fashion to experimenter between 2 and 4 pm daily by examiners blinded to experimental treatments using the following scale: 0=no clinical signs of disease; 1=limp tail or waddling gait with tail tonicity; 2=waddling gait with limp tail (ataxia); 2.5=ataxia with partial limb paralysis; 3=full paralysis of one limb; 3.5=full paralysis of one limb with partial paralysis of second limb; 4=full paralysis of two limbs; 4.5=moribund stage; 5=death. […]
Animals were anesthetized and fixed with cardiac perfusion of 4% paraformaldehyde (Nath et al., 2004). […] To assess the status of myelin, the sections were stained with antibody specific to MBP and detected with secondary antibody conjugated with immunofluorescent analysis. […]

[1] = tested on: tight junction proteins (ZO-1, Occludin, Claudin-5); test: Immunofluorescence of tight junction proteins in isolated microvessels of diabetic mice; assay type: in vivo
Experimental: Male laca mice weighing between 28-32 g were procured from the Central Animal House, Panjab University, Chandigarh. The animals were acclimatized and were fed with standard pellet diet and water ad libitum. The experimental protocols were approved by the Institutional Ethics Committee and were conducted according to Indian National Science Academy (INSA) guidelines for the use and care of experimental animals. The animals were divided into four groups: (i) Control animals received phosphate buffered saline (PBS) throughout the study; (ii) Control+GSNO animals were administered with GSNO 100 μg/kg body weight orally, dissolved in PBS after every 24 h for 8 weeks; (iii) Diabetic animals were injected with STZ at a dose of 40 mg/kg body weight intraperitoneally for 5 days dissolved in 0.1 mol/L citrate buffer, pH 4.5 and Diabetic+GSNO mice were administered GSNO 100 μg/kg body weight orally dissolved in PBS after every 24 h for 8 weeks after the induction of diabetes. Animals were assessed weekly for development of diabetic encephalopathy in terms of memory deficits. All experimental procedures were done on mice at the end of study.
The microvessels were isolated by the method described by Brooks et al., (2005). Brain tissue was homogenized in microisolation buffer (103 mM NaCl, 4.7 mM KCl, 2.5 mM CaCb, 1.2 mM KH2PO4, 1.2 mM MgSO4, 15 mM HEPES, 2.5 mM NaHCO3, 10 mM D-glucose, 1 mM sodium pyruvate and 10 g/L dextran (64,000 mol wt), pH 7.4) and equal amount of 26% (w/v) dextran was added. The sample was then centrifuged at 5600 g for 10 min and pellets obtained were resuspended in microisolation buffer. Then the suspension was filtered through 70 μm filter (BD Biosciences, Gurgaon, India). […]
Isolated microvessels were resuspended in PBS and allowed to attach to polylysine-coated slides for 30 min at 37° C. and fixed at 95° C. for 10 min. […] After placement and sealing of coverslips, photographs were taken with 40× objective on a Nikon TE-300 fluorescence microscope with a fluorescein filter (Schulze & Firth 1993).

[2] = microvessels of GSNO supplemented diabetic animals vs untreated diabetic group

Row | Compound | protection of myelin in the spinal cord (myelin) | claudin-5 fluorescent intensity ([1]; GSNO treated diabetic animals) | fluorescent intensity for ZO-1 [1, 2] | fluorescent intensity for occludin [1, 2]
1 | N[C@@H](CCC(=O)N[C@@H](CSN=O)C(=O)NCC(=O)O)C(=O)O [GSNO, S-nitrosoglutathione] | protected myelin | No change | increased fluorescent intensity | increased fluorescent intensity
2 | Cl.O=S(=O)([O-])c1ccc(-c2c3nc(c(-c4ccc(S(=O)(=O)O)cc4)c4ccc([nH]4)c(-c4ccc(S(=O)(=O)O)cc4)c4nc(c(-c5ccc(S(=O)(=O)O)cc5)c5ccc2[nH]5)C=C4)C=C3)cc1.[Fe] [FeTPPS, 5,10,15,20-Tetrakis(4-sulfonatophenyl)porphyrinato Iron (III), Cl, reference compound] | protected myelin |  |  | 
